Assays:
[1] = target: T1, AR (AR-full length) in LNCaP cells (Homo sapiens, UniProt P10275, T878A); assay: LNCaP Androgen Receptor Imaging Assay (immunofluorescence of endogenous nuclear AR); format: cell-based; settings: 24 h incubation; for DC50: concentration giving 50% of maximum degradation of AR per curve fit, single experiment or average of two or more; for Dmax: LNCaP, maximum degradation observed, normalized as % of positive control (prior art AR PROTAC at 3 μM)
T1 construct: the prostate cancer cell line LNCaP (expressing AR-full length); endogenous in cells; host or cells: LNCaP
T1 sequence (P10275 whole entry T878A): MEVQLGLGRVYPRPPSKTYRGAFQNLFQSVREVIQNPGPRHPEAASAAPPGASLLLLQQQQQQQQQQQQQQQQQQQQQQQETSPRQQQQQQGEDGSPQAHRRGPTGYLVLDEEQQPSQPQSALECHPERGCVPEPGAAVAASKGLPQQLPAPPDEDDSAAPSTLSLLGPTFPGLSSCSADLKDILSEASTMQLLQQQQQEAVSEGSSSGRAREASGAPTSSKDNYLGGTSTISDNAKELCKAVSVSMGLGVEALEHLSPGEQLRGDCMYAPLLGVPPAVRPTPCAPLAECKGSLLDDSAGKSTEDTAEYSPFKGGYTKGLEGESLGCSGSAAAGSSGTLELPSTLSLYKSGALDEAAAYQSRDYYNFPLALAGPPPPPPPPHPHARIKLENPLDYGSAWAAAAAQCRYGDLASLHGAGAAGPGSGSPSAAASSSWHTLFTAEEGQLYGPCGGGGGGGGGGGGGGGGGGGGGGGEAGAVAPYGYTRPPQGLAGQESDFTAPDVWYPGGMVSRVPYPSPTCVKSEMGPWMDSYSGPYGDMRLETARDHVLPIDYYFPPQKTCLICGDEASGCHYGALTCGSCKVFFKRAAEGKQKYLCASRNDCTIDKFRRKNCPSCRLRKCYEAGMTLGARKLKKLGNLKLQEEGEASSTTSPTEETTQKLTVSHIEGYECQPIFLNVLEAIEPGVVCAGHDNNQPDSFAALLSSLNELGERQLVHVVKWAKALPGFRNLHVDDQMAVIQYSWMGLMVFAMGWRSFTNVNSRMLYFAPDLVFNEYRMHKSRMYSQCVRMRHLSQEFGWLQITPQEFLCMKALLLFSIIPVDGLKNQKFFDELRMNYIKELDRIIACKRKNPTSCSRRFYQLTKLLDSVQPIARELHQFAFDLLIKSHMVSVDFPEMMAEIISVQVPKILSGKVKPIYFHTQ
T1 sequence (Q96SW2 whole entry partner): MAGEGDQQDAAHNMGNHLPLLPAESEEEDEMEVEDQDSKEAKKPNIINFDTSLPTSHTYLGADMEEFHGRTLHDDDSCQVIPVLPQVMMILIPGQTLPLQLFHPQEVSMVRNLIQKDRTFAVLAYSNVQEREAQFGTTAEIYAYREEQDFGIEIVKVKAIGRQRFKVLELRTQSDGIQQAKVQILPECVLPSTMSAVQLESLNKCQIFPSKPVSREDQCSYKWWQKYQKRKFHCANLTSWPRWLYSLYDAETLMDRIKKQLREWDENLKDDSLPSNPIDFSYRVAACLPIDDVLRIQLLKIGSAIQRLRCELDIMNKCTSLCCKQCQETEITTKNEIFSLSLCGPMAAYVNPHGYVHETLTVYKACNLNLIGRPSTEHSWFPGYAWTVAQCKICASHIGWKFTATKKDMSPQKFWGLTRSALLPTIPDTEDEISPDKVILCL
Procedure, shortened: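 LNCaP cells (12,000/well) received a 12-point compound dose series (0.3% DMSO) for 24 h at 37° C., then were PFA-fixed and stained for AR (AR441) and nuclei (DRAQ5). Nuclear AR was quantified by imaging, normalized to a 3 μM AR PROTAC control; DC50 and Dmax came from Hill/bell curve fits.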

[2] = target: T2, AR (L702H) in LNCaP cells (Homo sapiens, UniProt P10275, L702H/T878A); assay: LNCaP Androgen Receptor L702H Imaging Assay (LNCaP cells engineered by CRISPR/Cas9); format: cell-based; settings: LNCaP cells with AR L702H mutation, 24 h incubation; for DC50: concentration giving 50% of maximum degradation of AR (L702H) per curve fit; for Dmax: LNCaP, maximum degradation observed, normalized as % of positive control
T2 construct: engineered to introduce the mutation L702H into the AR gene using CRISPR/Cas9; endogenous in cells; host or cells: LNCaP cells edited by CRISPR/Cas9 at the AR gene
T2 sequence (P10275 whole entry L702H/T878A): as the sequence (P10275 whole entry T878A) above, with L702H counted along it
T2 sequence (Q96SW2 whole entry partner): as the sequence (Q96SW2 whole entry partner) above
Procedure, shortened: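 CRISPR-engineered LNCaP cells carrying AR L702H were treated 24 h at 37 °C with a 12-point compound dose response (0.3% DMSO), then fixed and immunostained for AR with DRAQ5 nuclear counterstain. Nuclear AR was quantified by imaging, normalized to positive control; DC50 and Dmax came from Hill or bell-shaped fits.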

Row | Compound | DC50 [1] [nM] | Dmax [1] [%] | DC50 [2] [nM] | Dmax [2] [%]
1 | COc1cc(N2CCN(CC3CCN(c4ccc(C5CCN(c6ccc(C)c7c(C#N)c[nH]c67)CC5)cc4)CC3)CC2)cc2c1C(=O)N(C1CCC(=O)NC1=O)C2 (centres unmarked) [Example 15, 7-(4-{4-[4-({4-[2-(2,6-Dioxopiperidin-3-yl)-7-methoxy-1-oxo-2,3-dihydro-1H-isoindol-5-yl]piperazin-1-yl}methyl)piperidin-1-yl]phenyl}piperidin-1-yl)-4-methyl-1H-indole-3-carbonitrile] | 9 | 97 | 24 | 85
2 | COc1cc(N2CCN(CC3CCN(c4ccc(C5CCN(c6ccc(F)c7c(C#N)c[nH]c67)CC5)cc4)CC3)CC2)cc2c1C(=O)N(C1CCC(=O)NC1=O)C2 (centres unmarked) [Example 20, 7-(4-{4-[4-({4-[2-(2,6-Dioxopiperidin-3-yl)-7-methoxy-1-oxo-2,3-dihydro-1H-isoindol-5-yl]piperazin-1-yl}methyl)piperidin-1-yl]phenyl}piperidin-1-yl)-4-fluoro-1H-indole-3-carbonitrile] | 9 | 94 | 8 | 101
3 | N#Cc1c[nH]c2c(N3CCC[C@H](c4ccc(N5CCC(CN6CCN(c7ccc8c(c7)CN(C7CCC(=O)NC7=O)C8=O)CC6)CC5)cc4)C3)ccc(Cl)c12 (stereo partly drawn) [Example 21, 4-Chloro-7-[(3R)-3-{4-[4-({4-[2-(2,6-dioxopiperidin-3-yl)-1-oxo-2,3-dihydro-1H-isoindol-5-yl]piperazin-1-yl}methyl)piperidin-1-yl]phenyl}piperidin-1-yl]-1H-indole-3-carbonitrile] | 8 | 92 | 7 | 103
4 | N#Cc1c[nH]c2c(N3CCC(c4ccc(N5CCN(CC6CCN(c7ccc8c(c7)CN(C7CCC(=O)NC7=O)C8=O)CC6)CC5)cc4)CC3)ccc(F)c12 (centres unmarked) [Example 22] | 14 | 80 | 23 | 81
5 | N#Cc1c[nH]c2c(N3CCC[C@@H](c4ccc(N5CCC(CN6CCC(n7ccc8c(N9CCC(=O)NC9=O)cccc87)CC6)CC5)cc4)C3)ccc(F)c12 [Example 23, 7-[(3S)-3-{4-[4-({4-[4-(2,4-Dioxo-1,3-diazinan-1-yl)-1H-indol-1-yl]piperidin-1-yl}methyl)piperidin-1-yl]phenyl}piperidin-1-yl]-4-fluoro-1H-indole-3-carbonitrile] | 12 | 100 | 57 | 94
6 | N#Cc1c[nH]c2c(N3CCC[C@@H](c4ccc(N5CCC(CN6CCN(c7ccc8c(c7)CN(C7CCC(=O)NC7=O)C8=O)CC6)CC5)cc4)C3)ccc(F)c12 (stereo partly drawn) [Example 24, 7-[(3S)-3-{4-[4-({4-[2-(2,6-dioxopiperidin-3-yl)-1-oxo-2,3-dihydro-1H-isoindol-5-yl]piperazin-1-yl}methyl)piperidin-1-yl]phenyl}piperidin-1-yl]-4-fluoro-1H-indole-3-carbonitrile] | 6 | 100 | 18 | 83
7 | N#Cc1n[nH]c2c(N3CCC[C@H](c4ccc(N5CCC(CN6CCC(n7ccc8c(N9CCC(=O)NC9=O)cccc87)CC6)CC5)cc4)C3)ccc(Cl)c12 [Example 25, 4-Chloro-7-[(3R)-3-{4-[4-({4-[4-(2,4-dioxo-1,3-diazinan-1-yl)-1H-indol-1-yl]piperidin-1-yl}methyl)piperidin-1-yl]phenyl}piperidin-1-yl]-1H-indazole-3-carbonitrile] | 6 | 92 | 4 | 104
8 | N#Cc1c[nH]c2c(N3CCC[C@H](c4ccc(N5CCC(CN6CCC(n7ccc8c(N9CCC(=O)NC9=O)cccc87)CC6)CC5)cc4)C3)ccc(Cl)c12 [Example 26, 4-Chloro-7-[(3R)-3-{4-[4-({4-[4-(2,4-dioxo-1,3-diazinan-1-yl)-1H-indol-1-yl]piperidin-1-yl}methyl)piperidin-1-yl]phenyl}piperidin-1-yl]-1H-indole-3-carbonitrile] | 9 | 92 | 7 | 106
9 | COc1cc(N2CCN(CCCCOc3ccc(C4CCN(c5ccc(C)c6c(C#N)c[nH]c56)CC4)cc3)CC2)cc2c1C(=O)N(C1CCC(=O)NC1=O)C2 (centres unmarked) [Example 27, 7-{4-[4-(4-{4-[2-(2,6-Dioxopiperidin-3-yl)-7-methoxy-1-oxo-2,3-dihydro-1H-isoindol-5-yl]piperazin-1-yl}butoxy)phenyl]piperidin-1-yl}-4-methyl-1H-indole-3-carbonitrile] | 14 | 99 | 27 | 75
10 | Cc1ccc(N2CCC(c3ccc(OCCCCN4CCN(c5ccc6c(c5)CN(C5CCC(=O)NC5=O)C6=O)CC4)cc3)CC2)c2[nH]cc(C#N)c12 (centres unmarked) [Example 28, 7-{4-[4-(4-{4-[2-(2,6-dioxopiperidin-3-yl)-1-oxo-2,3-dihydro-1H-isoindol-5-yl]piperazin-1-yl}butoxy)phenyl]piperidin-1-yl}-4-methyl-1H-indole-3-carbonitrile] | 5 | 96 | 23 | 83
11 | Cc1ccc(N2CCC(c3ccc(OCCCCN4CCC(n5ccc6c(N7CCC(=O)NC7=O)cccc65)CC4)cc3)CC2)c2[nH]cc(C#N)c12 [Example 29, 7-{4-[4-(4-{4-[4-(2,4-Dioxo-1,3-diazinan-1-yl)-1H-indol-1-yl]piperidin-1-yl}butoxy)phenyl]piperidin-1-yl}-4-methyl-1H-indole-3-carbonitrile] | 79 | 94 | 60 | 74
12 | COc1nc(N2CCN(CC3CCN(c4ccc(C5CCN(c6ccc(C)c7c(C#N)c[nH]c67)CC5)cc4)CC3)CC2)cc2c1C(=O)N(C1CCC(=O)NC1=O)C2 (centres unmarked) [Example 30, 7-(4-{4-[4-({4-[2-(2,6-Dioxopiperidin-3-yl)-4-methoxy-3-oxo-2,3-dihydro-1H-pyrrolo[3,4-c]pyridin-6-yl]piperazin-1-yl}methyl)piperidin-1-yl]phenyl}piperidin-1-yl)-4-methyl-1H-indole-3-carbonitrile] | 25 | 98 | 83 | 83
13 | COc1nc(N2CCN(CCCCOc3ccc(C4CCN(c5ccc(C)c6c(C#N)c[nH]c56)CC4)cc3)CC2)cc2c1C(=O)N(C1CCC(=O)NC1=O)C2 (centres unmarked) [Example 31, 7-{4-[4-(4-{4-[2-(2,6-Dioxopiperidin-3-yl)-4-methoxy-3-oxo-2,3-dihydro-1H-pyrrolo[3,4-c]pyridin-6-yl]piperazin-1-yl}butoxy)phenyl]piperidin-1-yl}-4-methyl-1H-indole-3-carbonitrile] | 8 | 94 | 22 | 88
14 | COc1nc(N2CCN(CCCCOc3ccc(C4CCN(c5ccc(Cl)c6c(C#N)c[nH]c56)CC4)cc3)CC2)cc2c1C(=O)N(C1CCC(=O)NC1=O)C2 (centres unmarked) [Example 32, 4-Chloro-7-{4-[4-(4-{4-[2-(2,6-dioxopiperidin-3-yl)-4-methoxy-3-oxo-2,3-dihydro-1H-pyrrolo[3,4-c]pyridin-6-yl]piperazin-1-yl}butoxy)phenyl]piperidin-1-yl}-1H-indole-3-carbonitrile] | 5 | 99 | 10 | 100
15 | N#Cc1c[nH]c2c(N3CCC(c4ccc(OCCCCN5CCC(n6ccc7c(N8CCC(=O)NC8=O)cccc76)CC5)cc4)CC3)ccc(F)c12 [Example 33, 7-{4-[4-(4-{4-[4-(2,4-Dioxo-1,3-diazinan-1-yl)-1H-indol-1-yl]piperidin-1-yl}butoxy)phenyl]piperidin-1-yl}-4-fluoro-1H-indole-3-carbonitrile] | 12 | 97 | 33 | 90
16 | COc1nc(N2CCN(CC3CCN(c4ccc(C5CCN(c6ccc(Cl)c7c(C#N)c[nH]c67)CC5)cc4)CC3)CC2)cc2c1C(=O)N(C1CCC(=O)NC1=O)C2 (centres unmarked) [Example 34, 4-Chloro-7-(4-{4-[4-({4-[2-(2,6-dioxopiperidin-3-yl)-4-methoxy-3-oxo-2,3-dihydro-1H-pyrrolo[3,4-c]pyridin-6-yl]piperazin-1-yl}methyl)piperidin-1-yl]phenyl}piperidin-1-yl)-1H-indole-3-carbonitrile] | 7 | 98 | 12 | 102
17 | COc1nc(N2CCN(CC3CCN(c4ccc(C5CCN(c6ccc(F)c7c(C#N)c[nH]c67)CC5)cc4)CC3)CC2)cc2c1C(=O)N(C1CCC(=O)NC1=O)C2 (centres unmarked) [Example 37, 7-(4-{4-[4-({4-[2-(2,6-Dioxopiperidin-3-yl)-4-methoxy-3-oxo-2,3-dihydro-1H-pyrrolo[3,4-c]pyridin-6-yl]piperazin-1-yl}methyl)piperidin-1-yl]phenyl}piperidin-1-yl)-4-fluoro-1H-indole-3-carbonitrile] | 15 | 90 | 11 | 100

Reference: patent US20260274832A1, “COMPOUNDS AND THEIR USE IN TREATING CANCER” (ASTRAZENECA AB, priority 2023, published 2026)
